Among the test systems are SK-OV-3; NCI-H460; NCI/ADR-RES; CAKI-1; SF-295; OVCAR-3; HCT-15; HOP-62; COLO 205; OVCAR-8; RXF 393; ACHN; HCT-116; A549; OVCAR-4; NCI-H23; SR; UACC-62; K562.
Holding throughout (experiment): DTP human tumour cell line panel, 48 h

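In this assay, cells in 96-well plates receive the compound at five concentrations for 48 hours. Endpoints are linearly interpolated between the surrounding concentrations. GI50 marks 50% less growth.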 Activity calls are given as the source filed them. No stated cut-off is given here; in the data, active = GI50 up to about 1.1 µM and inactive = higher. Bounds are passed on as bounds.

The values below come from ChEMBL document CHEMBL1201862, “PubChem BioAssay data set” (2004).

In the case of `CC(=C\c1ccccc1)/C=C(\C#N)C(N)=O`, the GI50 with SK-OV-3, with NCI-H460, in the experiment with NCI/ADR-RES, with CAKI-1, with SF-295 and with OVCAR-3 was > 10 µM (inactive) throughout. The GI50 (usually the concentration that inhibits growth by half) with HCT-15 is > 10 µM; in the experiment with HOP-62 it was > 10 µM (inactive); with COLO 205, > 10 µM (inactive); with OVCAR-8, > 10 µM (inactive); with RXF 393, > 10 µM (inactive); in the experiment on ACHN it was > 10 µM (inactive).
For `O=C(COc1ccc(/C=C/C(=O)c2ccc(Cl)cc2)cc1)Nc1c(Cl)cccc1Cl`, the GI50 was 58.3 µM (inactive) with SK-OV-3; 38.2 µM (inactive) in the experiment on HCT-116; > 100 µM (inactive) with NCI-H460; > 100 µM (inactive) in the experiment with CAKI-1; > 100 µM (inactive) with A549; 94 µM (inactive) in the experiment with OVCAR-4. For the same compound, the GI50 in the experiment on SF-295 was 68.7 µM (inactive); in the experiment with NCI-H23, 77.8 µM (inactive); with OVCAR-3, > 100 µM (inactive); in the experiment on SR it was 50 µM (inactive); in the experiment with HCT-15, > 100 µM; in the experiment with HOP-62, > 100 µM (inactive). The GI50 was > 100 µM (inactive) in the experiment with COLO 205; 51.4 µM (inactive) in the experiment with OVCAR-8; 36 µM (inactive) in the experiment on RXF 393; > 100 µM (inactive) in the experiment with ACHN; > 100 µM (inactive) in the experiment on UACC-62.
For `CCn1c(=O)c2nc(SC)sc2n(-c2ccccc2)c1=S`, the GI50 with SK-OV-3 is 94.6 µM (inactive); with HCT-116, 58.7 µM (inactive); with K562 it was 11.3 µM (inactive); with NCI-H460 it was 37.8 µM (inactive); in the experiment on NCI/ADR-RES, 44.5 µM (inactive); in the experiment with A549 it was 98.9 µM (inactive). Also, the GI50 in the experiment on OVCAR-4 is > 100 µM (inactive); in the experiment on SF-295, > 100 µM (inactive); in the experiment on NCI-H23, 46.8 µM (inactive); with OVCAR-3 it was 68.5 µM (inactive); in the experiment on SR it was > 100 µM (inactive); in the experiment on HCT-15 it was 79.4 µM. In addition, the GI50 is > 100 µM (inactive) with HOP-62; > 10 µM (inactive) in the experiment with COLO 205; 68.7 µM (inactive) with OVCAR-8; 67.3 µM (inactive) with RXF 393; 43.9 µM (inactive) with ACHN; 38 µM (inactive) in the experiment with UACC-62.
As to `N#CC1(C#N)C2C=CC(c3coc4cccc2c34)C1(C#N)C#N` (stereo not given), the GI50 with SK-OV-3 was 17.7 µM (inactive); in the experiment with HCT-116, 2.49 µM (inactive); with K562 it was 2.27 µM (inactive); with NCI-H460, 19.4 µM (inactive); in the experiment on A549 it was 17.9 µM (inactive); with OVCAR-4, 31.8 µM (inactive). The GI50 in the experiment with SF-295 was 19.9 µM (inactive); in the experiment with NCI-H23, 18.7 µM (inactive); with OVCAR-3 it was 15.7 µM (inactive); in the experiment on SR, 3.01 µM (inactive); in the experiment with HCT-15, 7.08 µM; in the experiment on HOP-62 it was 22.6 µM (inactive). In addition, the GI50 in the experiment with COLO 205 is 1.9 µM (inactive); in the experiment on OVCAR-8 it was 3.47 µM (inactive); in the experiment on RXF 393, 3.91 µM (inactive); in the experiment on ACHN it was 5.53 µM (inactive); with UACC-62 it was 10.2 µM (inactive).
With `C/C=C1\Oc2ccc(OC)cc2S1(=O)=O`, the GI50 in the experiment with SK-OV-3, in the experiment with HCT-116, in the experiment on K562, with NCI-H460, with CAKI-1 and in the experiment on A549 was > 100 µM (inactive) throughout. For the same compound, the GI50 was > 100 µM (inactive) in the experiment on OVCAR-4; > 100 µM (inactive) with SF-295; > 100 µM (inactive) in the experiment with NCI-H23; > 100 µM (inactive) with OVCAR-3; > 100 µM (inactive) in the experiment on SR; > 100 µM with HCT-15. The GI50 in the experiment with HOP-62, with COLO 205, in the experiment with OVCAR-8, in the experiment with RXF 393, with ACHN and in the experiment with UACC-62 was > 100 µM (inactive) each time.
For the compound `CC(C)CC1CC2C(=O)N(c3ccccc3)C(=O)C2c2[nH]c3ccccc3c21` (stereo not given), the GI50 is 21.4 µM (inactive) with SK-OV-3; 11.4 µM (inactive) with HCT-116; 6.1 µM (inactive) in the experiment on K562; 29.2 µM (inactive) in the experiment with NCI-H460; 18.7 µM (inactive) in the experiment with CAKI-1; 22.4 µM (inactive) in the experiment on A549. Further, the GI50 in the experiment on OVCAR-4 is 8.3 µM (inactive); in the experiment on SF-295, 20.7 µM (inactive); in the experiment on NCI-H23 it was > 45.1 µM (inactive); in the experiment on OVCAR-3, 13.1 µM (inactive); with SR, 10.4 µM (inactive); in the experiment on HCT-15, 17.3 µM. For the same compound, the GI50 in the experiment on HOP-62 is 18.8 µM (inactive); with COLO 205, 31 µM (inactive); in the experiment with OVCAR-8, 14.9 µM (inactive); in the experiment with RXF 393, 14.6 µM (inactive); with ACHN it was 38 µM (inactive); in the experiment with UACC-62 it was 12.4 µM (inactive).
As for `CC1(C)C(=O)C(O)=CC2C1=CCC1C2(C)C(=O)CC2(C)C(C(C)(O)C(=O)CC(O)C(C)(C)O)C(O)CC12C` (stereo not given), the GI50 is 3.72 µM (inactive) in the experiment on SK-OV-3; 3.97 µM (inactive) in the experiment with HCT-116; 4.66 µM (inactive) in the experiment with K562; 3.39 µM (inactive) with NCI-H460; 2.12 µM (inactive) with CAKI-1; 3.04 µM (inactive) in the experiment with A549. Further, the GI50 in the experiment on OVCAR-4 was 2.82 µM (inactive); with SF-295, 4.67 µM (inactive); in the experiment with NCI-H23, 10.9 µM (inactive); with OVCAR-3, 3.28 µM (inactive); in the experiment on SR, 4 µM (inactive); with HCT-15, 3.18 µM. Further, the GI50 is 4.63 µM (inactive) in the experiment with HOP-62; 3.67 µM (inactive) in the experiment with COLO 205; 12.6 µM (inactive) in the experiment on OVCAR-8; 2.56 µM (inactive) with RXF 393; 2.3 µM (inactive) with ACHN; 5.52 µM (inactive) in the experiment with UACC-62.
`C=C(CN(CC(=C)C(=O)c1ccccc1)C(C)(C)C)C(=O)c1ccccc1`: the GI50 is 18.4 µM (inactive) in the experiment on SK-OV-3; 13.8 µM (inactive) in the experiment on HCT-116; 3.01 µM (inactive) with K562; 20.6 µM (inactive) in the experiment on NCI-H460; 4.28 µM (inactive) with CAKI-1; 28.4 µM (inactive) in the experiment with A549. Further, the GI50 was 11.6 µM (inactive) in the experiment with OVCAR-4; 28.3 µM (inactive) in the experiment on SF-295; 16.4 µM (inactive) in the experiment on NCI-H23; 13.8 µM (inactive) in the experiment on OVCAR-3; 2.1 µM (inactive) in the experiment on SR; 2.65 µM (inactive) in the experiment with COLO 205. Also, the GI50 is 20.5 µM (inactive) with OVCAR-8, 5.36 µM (inactive) in the experiment with RXF 393, 8.99 µM (inactive) with ACHN and 17.2 µM (inactive) in the experiment with UACC-62.
Take `COCCN(C(=O)c1ccccc1)C1CCC2(SCCS2)c2[nH]c3ccccc3c21` (stereo not given): the GI50 was 37.8 µM (inactive) with HCT-116; 15.9 µM (inactive) in the experiment on K562; 29.6 µM (inactive) in the experiment on NCI-H460; 30.2 µM (inactive) in the experiment with NCI/ADR-RES; 79.6 µM (inactive) in the experiment with CAKI-1; 26.2 µM (inactive) in the experiment with A549. For the same compound, the GI50 with SF-295 was 42.7 µM (inactive); in the experiment with NCI-H23, 51.5 µM (inactive); with OVCAR-3, 51.2 µM (inactive); with SR, 29.7 µM (inactive); in the experiment with HCT-15, 28.8 µM; in the experiment on HOP-62, > 100 µM (inactive). For the same compound, the GI50 in the experiment on COLO 205 is 37.7 µM (inactive); in the experiment on OVCAR-8, 25.6 µM (inactive); in the experiment with RXF 393 it was 20.7 µM (inactive); in the experiment on ACHN, 37.5 µM (inactive).
As to `CC(C)n1c(=O)c2nn3c(=O)n(C(C)C)c(=O)c3nn2c1=O`, the GI50 with SK-OV-3, in the experiment on HCT-116, in the experiment on NCI-H460, in the experiment on NCI/ADR-RES, with CAKI-1 and in the experiment on A549 was > 100 µM (inactive) each time. Also, the GI50 in the experiment on OVCAR-4 is > 100 µM (inactive); in the experiment on SF-295, > 100 µM (inactive); in the experiment on NCI-H23, > 100 µM (inactive); with OVCAR-3, > 100 µM (inactive); with SR, > 100 µM (inactive); in the experiment with HCT-15, > 100 µM. The GI50 in the experiment with HOP-62, with COLO 205, in the experiment with OVCAR-8, in the experiment on RXF 393, in the experiment with ACHN and in the experiment with UACC-62 was > 100 µM (inactive) in each case.
For `COc1ccc(C2=C(OC(C)=O)c3cccn3-c3ccc(Cl)cc3S2)cc1`, the GI50 in the experiment with SK-OV-3 is 6.35 µM (inactive); in the experiment with K562, 2.4 µM (inactive); in the experiment with CAKI-1, 7.19 µM (inactive); with A549, 5.51 µM (inactive); in the experiment with OVCAR-4, 6.22 µM (inactive); in the experiment with SF-295 it was 3.05 µM (inactive). Besides, the GI50 in the experiment on NCI-H23 was 4.52 µM (inactive); in the experiment with SR, 2.33 µM (inactive); with HCT-15 it was 3.62 µM; in the experiment on HOP-62, 3.97 µM (inactive); with COLO 205, 5.66 µM (inactive); in the experiment with OVCAR-8, 6.53 µM (inactive). For the same compound, the GI50 in the experiment on RXF 393 was 9.44 µM (inactive); in the experiment with UACC-62 it was 4.48 µM (inactive).
Turning to `Cc1[nH]n(-c2nc3c(c(=O)[nH]2)CCCC3)c(=O)c1CCO`, the GI50 was > 100 µM (inactive) in the experiment with SK-OV-3; > 100 µM (inactive) with HCT-116; > 100 µM (inactive) with K562; > 100 µM (inactive) in the experiment on NCI-H460; > 100 µM (inactive) in the experiment with NCI/ADR-RES; 60 µM (inactive) in the experiment with CAKI-1. The GI50 with A549 is > 100 µM (inactive); with OVCAR-4, > 100 µM (inactive); in the experiment with SF-295 it was > 100 µM (inactive); in the experiment with NCI-H23, > 100 µM (inactive); in the experiment with OVCAR-3 it was > 100 µM (inactive); in the experiment with HCT-15, > 100 µM. The GI50 in the experiment with HOP-62, in the experiment on COLO 205, with OVCAR-8, in the experiment with RXF 393, with ACHN and with UACC-62 was > 100 µM (inactive) each time.
